According to article PMC12374583, “Targeting complement C3 with Tanshinone I decreases microglia-mediated synaptic engulfment to exert antidepressant effects” (Theranostics, 2025):

Legend:
[1] = target: T1, C3 (BV2 cell proteins) (Mus musculus, UniProt P01027); test: DARTS (Pronase), MS and Western blot; format: biochemical; conditions: 200 µM Tan I, 1 h; Pronase 30 min
T1 construct: endogenous C3 in BV2 (mouse microglial line) protein extract; detected by Western blot, 130-250 kDa band identified by MS
T1 sequence (P01027 25-666): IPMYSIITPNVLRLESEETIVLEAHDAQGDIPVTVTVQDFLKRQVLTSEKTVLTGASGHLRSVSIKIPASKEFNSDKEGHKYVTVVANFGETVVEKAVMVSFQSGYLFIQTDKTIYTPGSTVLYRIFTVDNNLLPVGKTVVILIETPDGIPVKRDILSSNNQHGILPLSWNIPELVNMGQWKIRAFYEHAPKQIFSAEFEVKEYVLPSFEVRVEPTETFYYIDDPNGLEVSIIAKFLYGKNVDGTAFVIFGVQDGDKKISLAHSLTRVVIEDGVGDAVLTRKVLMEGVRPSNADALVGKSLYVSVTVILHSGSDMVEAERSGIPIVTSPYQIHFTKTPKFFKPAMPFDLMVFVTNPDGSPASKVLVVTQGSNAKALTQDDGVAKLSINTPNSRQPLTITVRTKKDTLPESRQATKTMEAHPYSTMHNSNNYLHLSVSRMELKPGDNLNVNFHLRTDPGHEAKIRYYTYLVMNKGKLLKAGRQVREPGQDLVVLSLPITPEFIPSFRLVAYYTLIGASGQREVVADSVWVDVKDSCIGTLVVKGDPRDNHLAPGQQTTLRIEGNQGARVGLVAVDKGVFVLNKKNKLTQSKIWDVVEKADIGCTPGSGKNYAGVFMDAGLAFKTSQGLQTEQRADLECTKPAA
T1 sequence (P01027 671-1663): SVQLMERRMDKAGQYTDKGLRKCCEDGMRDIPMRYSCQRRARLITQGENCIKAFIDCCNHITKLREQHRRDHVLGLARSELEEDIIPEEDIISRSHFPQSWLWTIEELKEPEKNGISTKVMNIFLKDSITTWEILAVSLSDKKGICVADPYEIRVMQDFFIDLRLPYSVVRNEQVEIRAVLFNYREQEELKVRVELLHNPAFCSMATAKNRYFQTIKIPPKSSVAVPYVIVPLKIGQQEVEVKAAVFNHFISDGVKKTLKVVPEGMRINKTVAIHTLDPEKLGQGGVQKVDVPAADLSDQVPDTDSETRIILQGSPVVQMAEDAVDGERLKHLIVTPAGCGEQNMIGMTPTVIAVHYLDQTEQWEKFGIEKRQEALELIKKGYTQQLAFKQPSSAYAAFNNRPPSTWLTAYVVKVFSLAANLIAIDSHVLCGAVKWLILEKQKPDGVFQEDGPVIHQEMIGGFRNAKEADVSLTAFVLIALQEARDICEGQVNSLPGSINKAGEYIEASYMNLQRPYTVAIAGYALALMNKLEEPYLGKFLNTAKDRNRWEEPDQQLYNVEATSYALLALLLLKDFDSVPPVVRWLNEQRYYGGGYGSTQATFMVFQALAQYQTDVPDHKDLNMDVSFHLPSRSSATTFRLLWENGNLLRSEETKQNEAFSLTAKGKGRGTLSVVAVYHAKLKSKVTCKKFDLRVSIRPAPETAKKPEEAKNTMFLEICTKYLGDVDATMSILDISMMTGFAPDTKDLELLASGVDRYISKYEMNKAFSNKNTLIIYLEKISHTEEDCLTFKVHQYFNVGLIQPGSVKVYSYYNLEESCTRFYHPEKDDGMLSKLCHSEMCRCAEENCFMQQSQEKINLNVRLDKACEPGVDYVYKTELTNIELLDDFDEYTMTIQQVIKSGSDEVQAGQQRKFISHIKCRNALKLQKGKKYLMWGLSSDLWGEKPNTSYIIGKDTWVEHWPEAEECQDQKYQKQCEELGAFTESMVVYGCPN

[2] = target: T1, C3 (BV2 cell proteins); test: CETSA in BV2 protein extract, Western blot; format: biochemical; conditions: Tan I 1 h; 40-65 °C, 3 min
[3] = target: T2, C3 (complement C3), RED-NHS labelled; test: microscale thermophoresis (Monolith NT.[…]); format: binding; conditions: 25 °C, PBS with 5% DMSO compound stocks, Tan I up to 25 µM
T2 construct: human purified C3 equally possible

Kd [3]: 3.75 ± 3.31 µM
SMILES: Cc1coc2c1C(=O)C(=O)c1c-2ccc2c(C)cccc12 [Tan I]
protection from proteolysis (DARTS) [1]: Tan I protected C3 from proteolytic degradation | thermal stabilisation (CETSA) [2]: Tan I significantly enhances the thermal stability of C3 in a certain temperature range
